Tests used:
XIAP = target: T1, XIAP (Homo sapiens, UniProt P98170); assay: Fluorescence polarization-based competition assay, XIAP; format: binding; conditions: FP assay, ki derived from IC50
T1 construct: fused on or other part: GST tag at the N-terminus (pGEX4T vectors)
Method: (§1) Binding of compounds of Formula 1 to target BIR domains was measured using a fluorescence-polarization (FP) assay. Fluorescence-polarization was evaluated using a GENios microplate reader (TECAN) Pro instrument with the excitation filter set at 485 nm and the emission filter set at 535 nm. The final amount of protein used in the assay corresponds to the amount of protein necessary to obtain 80% of the maximum FP value in a P1 or P2 fluorescent (FITC) probe saturation experiment. The compounds potency (IC50) and selectivity, was assessed in the presence of the amount of target protein established, fluorescent probe, and a 10 point serial dilution in assay buffer (50 mM Hepes, pH 7.5, 250 mcg/mL γ-globulin, 2 mM DTT, 1% DMSO) of the selected compounds.
(§2) Assays were carried out in duplicate using untreated black 96-well plates (Corning #3915) and a total volume of 100 microliters, containing 25 microliters of fluorescent probe at a final concentration of 2 nM in assay buffer, 25 microliters of diluted compound, 25 microliters of BIR protein into assay buffer and 25 microliters of assay buffer. Buffer only (blank) or probe only in buffer (G-factor) were used as controls for calibration. The plate was incubated at room temperature in the dark for one hour and FP values in millipolarization units (mP) were recorded using Genios Pro FP reader.
(§3) The measured FP values (mP) were then plotted against compound concentration, and IC50 values were calculated based on a sigmoidal dose-response (variable-slope) curve fit using GraphPad Prism version 4.02 for Windows, GraphPad Software, San Diego Calif. USA and/or CambridgeSoft BioAssay Enterprise Version 10.1. The IC50 value is the concentration of test compound at which 50% of the tracer was displaced. ki values were derived from the calculated IC50 values as described above and according to the equation described in Nikolovska-Coleska, Z. (2004) Anal Biochem 332, 261-273. The results are presented in Table 2, wherein A=less than 25 nM; B=less than 250 nM; C=less than 1000 nM; and D=greater than 1000 nM.

c-IAP1 = target: T2, c-IAP1 (Homo sapiens, UniProt Q13490); assay: Fluorescence polarization-based competition assay, c-IAP1; format: binding; conditions: FP assay, ki derived from IC50
T2 construct: GST (N); made in house; host or cells: E. coli DH5α
Method: as §1, §2, §3

cIAP2 = target: T3, cIAP2 (Homo sapiens, UniProt Q13489); assay: Fluorescence polarization-based competition assay, cIAP2; format: binding; conditions: FP assay, ki derived from IC50
T3 construct: GST (N); made in house; host or cells: E. coli DH5α
Method: as §1, §2, §3

[1] = tested on: Colorectal carcinoma HCT116 cells; assay: Cell death assay (MTT) in combination with HGS ETR1; format: cell-based; conditions: with HGS ETR1 30 ng/ml, 72 hours, read-out: HCT116+ mapatubimap EC50
Method: Colorectal carcinoma HCT116 cells were cultured as monolayers in 96 well plates at a density of 2000 cells per well in McCoy's 5a medium (HyClone) supplemented with 2.2 g/L sodium bicarbonate, 10% FBS (HyClone) and 1% penicillin/streptomycin (HyClone). 24 hours later, triplicate wells were treated with HGS ETR1 (30 ng/ml) in combination with compound. Cells were incubated in the presence of compound and HGS agonistic Trail receptor antibody, ETR1 (Mapatumamab, 30 ng/ml) for 72 hours. Metabolic viability of remaining cells was assessed by MTT (thiazolyl blue tetrazolium bromide, Sigma) assay.
EC50 values (50% cell survival in the presence of compound as compared to untreated controls) were calculated from survival curves using BioAssay software (CambridgeSoft) and GraphPad Prism (Graph Pad Software Inc.). The results are provided in Table 3, below, wherein A=less than 50 nM; B=less than 250 nM; C=less than 1000 nM; and D=greater than 1000 nM.

T3 sequence (Q13489 236-349): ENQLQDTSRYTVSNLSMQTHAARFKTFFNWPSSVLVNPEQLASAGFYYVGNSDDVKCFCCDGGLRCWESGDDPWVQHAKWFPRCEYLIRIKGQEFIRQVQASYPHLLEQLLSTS
T2 sequence (Q13490 251-363): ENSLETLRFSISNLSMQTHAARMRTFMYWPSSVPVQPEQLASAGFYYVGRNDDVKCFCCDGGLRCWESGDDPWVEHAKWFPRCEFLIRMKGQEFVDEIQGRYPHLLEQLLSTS
T1 sequence (P98170 246-497 limits assumed): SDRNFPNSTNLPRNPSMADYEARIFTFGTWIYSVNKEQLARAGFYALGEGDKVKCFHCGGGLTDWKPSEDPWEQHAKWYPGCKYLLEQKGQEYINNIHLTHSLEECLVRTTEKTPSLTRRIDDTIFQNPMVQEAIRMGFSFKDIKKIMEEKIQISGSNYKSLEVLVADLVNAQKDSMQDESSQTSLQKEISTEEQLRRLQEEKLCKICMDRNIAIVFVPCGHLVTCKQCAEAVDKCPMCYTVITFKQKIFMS

SMILES	Ki (XIAP)	Ki (c-IAP1)	Ki (cIAP2)	EC50 [1]
CN[C@@H](C)C(=O)N[C@H](C(=O)N1C[C@@H](NC(C)=O)C[C@H]1CN(CCc1ccc(F)cc1)C(=O)c1cn2ccccc2n1)C(C)(C)C [Compound 70]	< 1000 nM	< 25 nM	< 250 nM	< 1000 nM
CCO[C@H](C)[C@H](NC(=O)[C@H](C)NC)C(=O)N1CCC[C@H]1CN(CCc1ccc(F)cc1)C(=O)c1cn(C)cn1 [Compound 76]	< 250 nM	< 25 nM	< 25 nM	< 50 nM
CN[C@@H](C)C(=O)N[C@H](C(=O)N1CCC[C@H]1CN(CCc1ccc(F)cc1)C(=O)c1cn(-c2ccccc2)nn1)[C@@H](C)OC [Compound 77]	< 250 nM	< 25 nM	< 25 nM	< 50 nM
CCO[C@H](C)[C@H](NC(=O)[C@H](C)NC)C(=O)N1CCC[C@H]1CN(CCc1ccc(F)cc1)C(=O)c1cn2ccccc2n1 [Compound 78]	< 250 nM	< 25 nM	< 25 nM	< 50 nM
CCO[C@H](C)[C@H](NC(=O)[C@H](C)NC)C(=O)N1CCC[C@H]1CN(CCc1ccc(F)cc1)C(=O)c1cn(-c2ccc(F)cc2)cn1 [Compound 79]	< 250 nM	< 25 nM	< 25 nM	< 50 nM
CCO[C@H](C)[C@H](NC(=O)[C@H](C)NC)C(=O)N1CCC[C@H]1CN(CCc1ccc(F)cc1)C(=O)c1cn2c(n1)CCC2 [Compound 81]	< 250 nM	< 25 nM	< 25 nM	< 50 nM
CN[C@@H](C)C(=O)N[C@H](C(=O)N1C[C@@H](Oc2ccc(F)cc2)C[C@H]1CN(CCc1ccc(F)cc1)C(=O)c1cn(C)cn1)C(C)(C)C [Compound 82]	< 25 nM	< 25 nM	< 25 nM	< 50 nM
CN[C@@H](C)C(=O)N[C@H](C(=O)N1C[C@@H](Oc2ccc(F)cc2)C[C@H]1CN(CCc1ccc(F)cc1)C(=O)c1cn2c(n1)CCC2)C(C)(C)C [Compound 83]	< 25 nM	< 25 nM	< 25 nM	< 50 nM

Now from value to compound, other results behind:

Ki (XIAP)	Ki (c-IAP1)	Ki (cIAP2)	SMILES	EC50 [1]
< 250 nM	< 25 nM	< 25 nM	CN[C@@H](C)C(=O)N[C@H](C(=O)N1C[C@@H](NC(=O)c2ccccc2)C[C@H]1CN(CCc1ccc(F)cc1)C(=O)c1cn2ccccc2n1)C(C)(C)C [Compound 69]	< 250 nM
< 250 nM	< 25 nM	< 25 nM	CN[C@@H](C)C(=O)N[C@H](C(=O)N1CCC[C@H]1CN(CCc1ccc(F)cc1)C(=O)c1cn(-c2ccc(F)cc2)cn1)[C@@H](C)OC [Compound 72]	< 50 nM
< 250 nM	< 25 nM	< 25 nM	CN[C@@H](C)C(=O)N[C@H](C(=O)N1CCC[C@H]1CN(CCc1ccc(F)cc1)C(=O)c1cn(C)cn1)[C@@H](C)OC [Compound 73]	< 250 nM
< 250 nM	< 25 nM	< 25 nM	CN[C@@H](C)C(=O)N[C@H](C(=O)N1CCC[C@H]1CN(CCc1ccc(F)cc1)C(=O)c1cn2cc(F)cnc2n1)[C@@H](C)OC [Compound 74]	< 50 nM
< 250 nM	< 25 nM	< 25 nM	CN[C@@H](C)C(=O)N[C@H](C(=O)N1CCC[C@H]1CN(CCc1ccc(F)cc1)C(=O)c1cn2c(n1)CCC2)[C@@H](C)OC [Compound 75]	< 50 nM
< 250 nM	< 25 nM	< 25 nM	CCO[C@H](C)[C@H](NC(=O)[C@H](C)NC)C(=O)N1CCC[C@H]1CN(CCc1ccc(F)cc1)C(=O)c1cn2cc(F)cnc2n1 [Compound 80]	< 50 nM
< 25 nM	< 25 nM	< 25 nM	CN[C@@H](C)C(=O)N[C@H](C(=O)N1C[C@@H](Oc2ccc(F)cc2)C[C@H]1CN(CCc1ccc(F)cc1)C(=O)c1cn2ccccc2n1)C(C)(C)C [Compound 84]	< 50 nM
< 1000 nM	< 25 nM	< 25 nM	CN[C@@H](C)C(=O)N[C@H](C(=O)N1CCC[C@H]1CN(CCc1ccc(F)cc1)C(=O)c1nccn1C)[C@@H](C)OC [Compound 85]	< 50 nM

— US9284350B2, “IAP BIR domain binding compounds” (Pharmascience Inc., priority 2010, dated 2016)
